This is an account of results in patent US20090209460A1, “COMPOSITIONS AND METHODS FOR TREATING OBESITY AND RELATED METABOLIC DISORDERS” (Amylin Pharmaceuticals, Inc., priority 2005, published 2009).

Data set [1] in a line: cumulative weight gain in rats with diet induced obesity (rat DIO), subcutaneous pump for seven days. The data set is classed as in vivo. The settings on record: subcutaneously continuously by pump for seven days. On the procedure: Both compounds were administered subcutaneously continuously by pump for seven days at the rate and dosage indicated.
A further data set deals with NIH/Swiss mice. The data set can be described thus: acute food intake assay, lean overnight-fasted NIH/Swiss mice, intraperitoneal injection. The data set is classed as in vivo, mouse. As to conditions: for reduction of food intake: administered systemically (i.p. to mice), dose and time not stated; for FI (60′, 200): % change relative to control, 60 min; for ED50 for effect on food intake: over 30 min, i.p.; for Activity (percent decrease in cumulative food intake compared to the vehicle), AUC: intraperitoneal, timepoint 120 min. The method in brief:
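Overnight-fasted lean female NIH/Swiss mice (8-24 weeks, group housed) received vehicle or peptide intraperitoneally at time 0, then pre-weighed standard chow. Food consumed was weighed at 30, 60 and 120 min and expressed as % change versus control.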

Data set [2] is described as follows: body weight and food intake in mice with diet induced obesity (mouse DIO), osmotic pump. The data set is classed as in vivo. On the procedure: The effect of FN38 and related compounds on body weight and food intake in obese subjects was investigated. Mice having diet induced obesity (DIO) were used. All in vivo tests were performed with peripheral injections of peptide. […] 4-week-old male C57BL/6 mice were group housed with water and a standard pelleted mouse chow diet available ad libitum, except as noted, and were maintained on a on a high fat diet (58% kcal from fat) for 4 weeks prior to the experiment. At the end of fattening period, osmotic pumps were implanted interscapularly under anesthesia. Mice received pumps continuously delivering vehicle (50% DMSO in water or saline) or polypeptide at the dose indicated. Food intake and body weight measurements were obtained weekly.

Data set [3] is described as follows: degradation in vitro in plasma, serial MS analyses. The data set is classed as in vitro ADME. From the text:
Doses at which we observed herein an absence of anorectic effect (in mice) were 1-2 orders of magnitude higher than the lower U8 dose for maximal hemodynamic effects in dogs (Sumi et al. 1987).

A short description of data set [4]: brush border membrane (BBM) stability assay. The data set is classed as in vitro ADME, human. As to conditions: for remaining at 5 h: brush border membrane extract (e.g. kidney). In outline: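 Peptides digested up to 5 h at 37 °C with human brush border membrane extract (e.g. kidney). Timepoints quenched with 50% ACN, 1% FA, centrifuged, intact peptide quantified by selected-ion mass spectrometry. Expressed as percent stable.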

The next data set deals with over-night fasted rats. The data set can be described thus: food intake in over-night fasted rats, given intraperitoneally. The data set is classed as in vivo, rat. The settings on record: 0.1 to 1.5 mg/kg, 30 and 60 minutes. On the procedure: FN38 in vehicle (10% DMSO in saline) was administered at 0.1 to 1.5 mg/kg. The food intake in grams and as a percent of vehicle are presented in FIGS. 4A and 4B at 30 and 60 minutes, respectively. FIG. 4C presents the same data plotted as grams of food consumed (intake) versus time. The results cannot be attributed to a locomotor effect (data not shown).

A further data set addresses DPP-IV (Homo sapiens, UniProt P27487). The data set can be described thus: DPP-IV degradation. The data set is classed as in vitro ADME. As to conditions: isolated DPP-IV peptidase, 25 mM HEPES buffer, 37 degrees C., 10 mM peptide, read-out: intact after contact with DPP-IV.
A further data set has as its system rats. The settings on record: 10 μg ICV dose; cited from earlier work.

Structures are written as SMILES. Read-outs that look alike come from different tables or passages of the source. Residues, ends and D or L forms follow the SMILES beside them.

DPP-IV, sequence (P27487 whole entry, species assumed): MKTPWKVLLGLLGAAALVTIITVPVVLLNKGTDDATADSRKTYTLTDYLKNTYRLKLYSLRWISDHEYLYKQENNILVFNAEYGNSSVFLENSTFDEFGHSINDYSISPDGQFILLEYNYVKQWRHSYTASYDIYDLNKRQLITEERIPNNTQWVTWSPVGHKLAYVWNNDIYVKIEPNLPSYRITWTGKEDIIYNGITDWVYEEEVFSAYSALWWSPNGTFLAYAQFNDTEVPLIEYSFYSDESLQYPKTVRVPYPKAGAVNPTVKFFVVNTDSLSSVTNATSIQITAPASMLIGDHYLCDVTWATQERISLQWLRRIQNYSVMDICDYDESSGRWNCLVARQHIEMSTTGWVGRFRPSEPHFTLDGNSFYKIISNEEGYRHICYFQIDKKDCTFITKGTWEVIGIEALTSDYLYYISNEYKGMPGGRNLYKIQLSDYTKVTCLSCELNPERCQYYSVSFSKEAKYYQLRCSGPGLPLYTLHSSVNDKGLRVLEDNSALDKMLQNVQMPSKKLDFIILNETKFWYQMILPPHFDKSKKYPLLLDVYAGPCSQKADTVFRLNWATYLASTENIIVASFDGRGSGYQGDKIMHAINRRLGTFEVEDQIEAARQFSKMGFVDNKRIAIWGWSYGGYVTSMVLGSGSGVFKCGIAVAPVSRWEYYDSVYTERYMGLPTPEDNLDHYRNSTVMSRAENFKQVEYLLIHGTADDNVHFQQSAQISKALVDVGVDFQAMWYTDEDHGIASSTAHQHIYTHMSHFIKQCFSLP
Experimental for DPP-IV: Peptide and peptidase were incubated in 25 mM HEPES buffer at 37 degrees C. at 10 mM peptide.

Take `CC(C)C[C@H](NC(=O)[C@H](Cc1ccccc1)NC(=O)[C@H](Cc1ccccc1)NC(=O)CNC(=O)CNC(=O)[C@H](CO)NC(=O)[C@@H]1CCCN1C(=O)[C@H](C)NC(=O)[C@@H](NC(=O)[C@@H]1CCCN1C(=O)CNC(=O)[C@H](CCC(N)=O)NC(=O)[C@H](Cc1ccc(O)cc1)NC(=O)[C@H](CCC(=O)O)NC(=O)[C@H](CC(N)=O)NC(=O)[C@@H](NC(=O)[C@H](CCCCN)NC(=O)[C@@H](N)Cc1ccc(O)cc1)C(C)C)C(C)C)C(=O)N[C@@H](Cc1ccccc1)C(=O)N[C@@H](CCCNC(=N)N)C(=O)N1CCC[C@H]1C(=O)N[C@@H](CCCNC(=N)N)C(=O)N[C@@H](CC(N)=O)C(N)=O` [Compound 163293, reference compound] (H-YKVNEYQGPVAPSGGFFLFRPRN-NH2; N-terminus assumed): the “cumulative weight gained in rat DIO (FIG. 5)” value in data set [1] was “reduction of cumulative weight gained”. The “reduction of food intake” value in the data set on NIH/Swiss mice is listed as “up to 66%”. In addition, the “change in intake (effectiveness)” value in the data set with NIH/Swiss mice (food intake over 30 min, mice) is given as −60%. For the same molecule, in the data set with NIH/Swiss mice (food intake), the “FI (60′, 200)” value is recorded as −37.5% and the 50% effective dose (ED50) at t = 60 was 0.017 mg/kg. Besides, the “ED50 for effect on food intake” value in the data set on NIH/Swiss mice (mice) came to 6.2 nmol/kg. Further, the “body weight gain and food intake in the DIO assay” value in data set [2] (75 nmol/kg/day) is “decreased body weight gain and food intake”. Besides, the “d 14 BWt loss” value in data set [2] (mouse DIO, day 14) is recorded as 3.7%.
On to `CC(C)C[C@H](NC(=O)[C@H](Cc1ccccc1)NC(=O)[C@@H](N)Cc1ccc(O)cc1)C(=O)N[C@@H](Cc1ccccc1)C(=O)N[C@@H](CCCNC(=N)N)C(=O)N1CCC[C@H]1C(=O)N[C@@H](CCCNC(=N)N)C(=O)N[C@@H](CC(N)=O)C(N)=O` [Compound 163291, reference compound], for which the “activity in food intake assays” value with NIH/Swiss mice (doses between 100-1000 μg/kg (up to 900 nmol/kg)) was “inactive”. In addition, in the data set with NIH/Swiss mice (food intake), the “FI (60′, 200)” value is −75%. In addition, in the data set with NIH/Swiss mice (food intake, mice), the “difference in potency between U-8 and rNMU-23” value was “at least 1000 fold”. In addition, the “degradation in vitro in plasma” value in data set [3] is given as “rapid degradation”.
With `CC(C)C[C@H](NC(=O)[C@H](CCCCN)NC(=O)[C@H](CCC(N)=O)NC(=O)[C@@H](NC(=O)[C@H](CCCCN)NC(=O)[C@H](CO)NC(=O)[C@H](Cc1ccc(O)cc1)NC(=O)[C@H](Cc1c[nH]cn1)NC(=O)[C@H](Cc1ccccc1)NC(=O)[C@H](CC(C)C)NC(=O)[C@@H](N)Cc1ccccc1)[C@@H](C)O)C(=O)NCC(=O)N[C@@H](CCCCN)C(=O)N[C@@H](CO)C(=O)N[C@@H](CC(N)=O)C(=O)N[C@H](C(=O)N[C@H](C(=O)N[C@@H](CCC(=O)O)C(=O)N[C@@H](CCC(=O)O)C(=O)N[C@@H](CC(C)C)C(=O)N[C@@H](CCC(N)=O)C(=O)N[C@@H](CO)C(=O)N1CCC[C@H]1C(=O)N[C@@H](Cc1ccccc1)C(=O)N[C@@H](C)C(=O)N[C@@H](CO)C(=O)N[C@@H](CCC(N)=O)C(=O)N[C@@H](CO)C(=O)N[C@@H](CCCNC(=N)N)C(=O)NCC(=O)N[C@@H](Cc1ccc(O)cc1)C(=O)N[C@@H](Cc1ccccc1)C(=O)N[C@@H](CC(C)C)C(=O)N[C@@H](Cc1ccccc1)C(=O)N[C@@H](CCCNC(=N)N)C(=O)N1CCC[C@H]1C(=O)N[C@@H](CCCNC(=N)N)C(=O)N[C@@H](CC(N)=O)C(N)=O)C(C)C)C(C)C` [Compound 163661] (H-FLFHYSKTQKLGKSNVVEELQSPFASQSRGYFLFRPRN-NH2; N-terminus assumed), in data set [4] (percent compound remaining after a 5 hour incubation, human brush border membrane assay, read-out: hBBM), the remaining at 5 h was determined as 62%. Moreover, the BBM in data set [4] (percent of stable, human brush border membrane extracts, five hours, 37° C.) is 62%. The “effect on food intake in over-night fasted rats” value in the data set on over-night fasted rats is recorded as “inhibiting food intake”. Moreover, the “cumulative weight gained in rat DIO (FIG. 5)” value in data set [1] was “reduction of cumulative weight gained”. For the same molecule, in the data set on NIH/Swiss mice, the “reduction of food intake” value is listed as 64%. Also, the “FI (60′, 200)” value in the data set with NIH/Swiss mice (food intake) was found to be 0%. The “ED50 at t = 60” value with NIH/Swiss mice (food intake) turned out to be 4 nmol/kg. Moreover, the “Activity (percent decrease in cumulative food intake compared to the vehicle), AUC” value in the data set with NIH/Swiss mice (dose 0.3 nmol/kg) is given as 0%; in the data set with NIH/Swiss mice (dose 1 nmol/kg), −23%; in the data set on NIH/Swiss mice (dose 3 nmol/kg) it was −25%; in the data set on NIH/Swiss mice (dose 10 nmol/kg), −48%; in the data set on NIH/Swiss mice (dose 30 nmol/kg) it was −58%; with NIH/Swiss mice (dose 100 nmol/kg) it was −72%. Also, the entries for the “Activity (percent decrease in cumulative food intake compared to the vehicle), AUC” value in the data set on NIH/Swiss mice (dose 300 nmol/kg) and with NIH/Swiss mice (dose 1000 ug/kg) were −60% and −46%, respectively. Further, the “Food Intake Inhibition” value in the data set with NIH/Swiss mice (mouse assay, dose of 200 mg/kg, measured at 60 minutes) is on record as −46%. Moreover, the “ED50 for effect on food intake” value with NIH/Swiss mice (mice) is 8.6 nmol/kg. Moreover, the remaining at 50 min, 10 mM at DPP-IV is roughly 100%. Moreover, the “d 2 BWt loss” value in data set [2] (mouse DIO, day 2) is given as 6.5%. The “d 7 BWt loss” value in data set [2] (mouse DIO, day 7) is 4.3%.
On to `CC(C)C[C@H](NC(=O)[C@H](Cc1ccccc1)NC(=O)[C@H](Cc1ccc(O)cc1)NC(=O)CNC(=O)[C@H](CCCNC(=N)N)NC(=O)[C@H](CO)NC(=O)[C@H](CCC(N)=O)NC(=O)[C@H](CO)NC(=O)[C@H](C)NC(=O)[C@H](Cc1ccccc1)NC(=O)[C@@H]1CCCN1C(=O)[C@H](CO)NC(=O)[C@H](CCC(N)=O)NC(=O)[C@H](Cc1ccccc1)NC(=O)[C@H](CCC(=O)O)NC(=O)[C@H](CCC(=O)O)NC(=O)[C@H](CC(=O)O)NC(=O)[C@@H](NC(=O)[C@H](CCCNC(=N)N)NC(=O)[C@@H](N)Cc1ccccc1)C(C)C)C(=O)N[C@@H](Cc1ccccc1)C(=O)N[C@@H](CCCNC(=N)N)C(=O)N1CCC[C@H]1C(=O)N[C@@H](CCCNC(=N)N)C(=O)N[C@@H](CC(N)=O)C(N)=O` [Compound 165054, reference compound] (H-FRVDEEFQSPFASQSRGYFLFRPRN-NH2; N-terminus assumed), for which, in data set [4] (percent of stable, human brush border membrane extracts, five hours, 37° C., read-out: BBM), the remaining at 5 h amounted to 13%. The “reduction in food intake” value with rats was roughly 30%. Moreover, the “reduction of food intake” value with NIH/Swiss mice is recorded as “at least 91%”. In the data set on NIH/Swiss mice (food intake), the “FI (60′, 200)” value is −65%. Besides, in the data set with NIH/Swiss mice (i.p. ED50 in mice compared with literature ICV dose in rats), the “potency administered peripherally versus centrally (i.c.v.), on a presumed concentration basis” value was roughly 300 fold.

The term ED50 denotes the midpoint of the dose-response relation. High values mean a need for a large dose, low ones an effect at a small dose.
